target: T1, human GLP-1R (Homo sapiens, UniProt P43220); experiment: GLP-1R cAMP assay (Example B1a, HTRF, 30 min at room temperature); format: cell-based; conditions: cAMP accumulation in HEK293 expressing human GLP-1R, no BETP, 30 min room temperature (Method B1a, compounds ID 1-609), Table 1; read-out: EC50
T1 construct: host or cells: HEK293
Outline: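 Competitive HTRF read-out of cAMP after 30 min room-temperature stimulation, BETP absent, of human GLP-1R-HEK293 cells (1,000/well) in HEPES buffer with 500 μM IBMX and 0.1% BSA. Activation normalised to GLP-1(7-37) positive control. EC50 from 4-parameter non-linear regression.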

T1 sequence (P43220 24-463): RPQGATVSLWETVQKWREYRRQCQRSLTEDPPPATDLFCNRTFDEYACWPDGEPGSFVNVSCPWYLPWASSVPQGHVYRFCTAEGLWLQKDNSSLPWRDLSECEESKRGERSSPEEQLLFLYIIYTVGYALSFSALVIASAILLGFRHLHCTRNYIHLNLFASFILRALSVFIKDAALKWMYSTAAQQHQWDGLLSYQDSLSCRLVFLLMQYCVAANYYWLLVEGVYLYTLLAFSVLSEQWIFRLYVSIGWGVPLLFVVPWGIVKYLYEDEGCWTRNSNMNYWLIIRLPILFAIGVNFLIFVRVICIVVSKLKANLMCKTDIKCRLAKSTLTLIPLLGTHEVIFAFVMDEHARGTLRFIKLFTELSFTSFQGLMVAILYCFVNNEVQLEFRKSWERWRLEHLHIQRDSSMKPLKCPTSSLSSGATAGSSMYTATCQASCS

EC50 [nM] | SMILES
≥ 10000 | Cc1cc(-n2nc3c(c2-n2ccn(-c4ccc5ccncc5c4F)c2=O)[C@@H]2CCC[C@H](C3)N2S(=O)(=O)c2cc3cc([C@H]4CCOC(C)(C)C4)ccc3n2[C@]2(c3noc(=O)[nH]3)C[C@@H]2C)cc(C)c1F [Compound 605, 3-[(1R,2S)-1-[5-[(4S)-2,2-dimethyltetrahydropyran-4-yl]-2-[[(1S,8R)-4-(4-fluoro-3,5-dimethyl-phenyl)-3-[3-(8-fluoro-7-isoquinolyl)-2-oxo-imidazol-1-yl]-4,5,12-triazatricyclo[6.3.1.02,6]dodeca-2,5-dien-12-yl]sulfonyl]indol-1-yl]-2-methyl-cyclopropyl]-4H-1,2,4-oxadiazol-5-one]
177 | Cc1cc(-n2nc3c(c2-n2ccn(-c4ccc5c(cnn5C)c4Cl)c2=O)[C@@H]2COC[C@H](C3)N2C(=O)c2cc3cc([C@H]4CCOC(C)(C)C4)ccc3n2[C@@]2(c3noc(=O)[nH]3)C[C@@H]2C)cc(C)c1F [Compound 222, 3-((1S,2S)-1-(2-((4R,8S)-3-(3-(4-chloro-1-methyl-1H-indazol-5-yl)-2-oxo-2,3-dihydro-1H-imidazol-1-yl)-2-(4-fluoro-3,5-dimethylphenyl)-2,4,5,7,8,9-hexahydro-4,8-epiminooxocino [5,4-c]pyrazole-10-carbonyl)-5-((S)-2,2-dimethyltetrahydro-2H-pyran-4-yl)-1H-indol-1-yl)-2-methylcyclopropyl)-1,2,4-oxadiazol-5(4H)-one]
≥ 10000 | Cc1cc(-n2nc3c(c2-n2ccn(-c4ccc5c(cnn5C)c4F)c2=O)[C@@H]2CC[C@H](C3)N2C(=O)c2cc3cc([C@@H]4CCOC5(CC5)C4)ccc3n2[C@@]2(c3noc(=O)[nH]3)C[C@H]2C)cc(C)c1F [Compound 541, 3-((1S,2R)-1-(2-((4S,7R)-3-(3-(4-fluoro-1-methyl-1H-indazol-5-yl)-2-oxo-2,3-dihydro-1H-imidazol-1-yl)-2-(4-fluoro-3,5-dimethylphenyl)-2,4,5,6,7,8-hexahydro-4,7-epiminocyclohepta [c]pyrazole-9-carbonyl)-5-((R)-4-oxaspiro[2.5]octan-7-yl)-1H-indol-1-yl)-2-methylcyclopropyl)-1,2,4-oxadiazol-5 (4H)-one]
51 | Cc1cc(-n2nc3c(c2-n2ccn(-c4ccc5c(cnn5C)c4F)c2=O)[C@@H]2CC[C@H](C3)N2C(=O)c2cc3cc([C@H]4CCOC(C)(C)C4)ncc3n2[C@@]2(c3noc(=O)[nH]3)C[C@@H]2C)cc(C)c1F [Compound 211, 3-((1S,2S)-1-(5-((S)-2,2-dimethyltetrahydro-2H-pyran-4-yl)-2-((4S,7R)-3-(3-(4-fluoro-1-methyl-1H-indazol-5-yl)-2-oxo-2,3-dihydro-1H-imidazol-1-yl)-2-(4-fluoro-3,5-dimethylphenyl)-2,4,5,6,7,8-hexahydro-4,7-epiminocyclohepta [c]pyrazole-9-carbonyl)-1H-pyrrolo[2,3-c]pyridin-1-yl)-2-methylcyclopropyl)-1,2,4-oxadiazol-5 (4H)-one]
52.9 | Cc1cc(-n2nc3c(c2-n2ccn(-c4ccc5c(cnn5C)c4)c2=O)[C@@H]2CC[C@H](C3)N2C(=O)c2cc3cc([C@H]4CCOC(C)(C)C4)ccc3n2[C@@]2(c3noc(=O)[nH]3)C[C@@H]2C)cc(C)c1F [Compound 302, 3-((1S,2S)-1-(5-((S)-2,2-dimethyltetrahydro-2H-pyran-4-yl)-2-((4S,7R)-2-(4-fluoro-3,5-dimethylphenyl)-3-(3-(1-methyl-1H-indazol-5-yl)-2-oxo-2,3-dihydro-1H-imidazol-1-yl)-2,4,5,6,7,8-hexahydro-4,7-epiminocyclohepta [c]pyrazole-9-carbonyl)-1H-indol-1-yl)-2-methylcyclopropyl)-1,2,4-oxadiazol-5 (4H)-one]
795 | Cc1cc(-n2nc3c(c2-n2ccn(-c4ccc5c(cnn5C)c4F)c2=O)[C@@H]2COC[C@H](C3)N2C(=O)c2cc3cc(C4CCOC5(CC5)C4)ccc3n2[C@@]2(c3noc(=O)[nH]3)C[C@@H]2C)cc(C)c1F (stereo partly drawn) [Compound 220, 3-((1S,2S)-1-(2-((4R,8S)-3-(3-(4-fluoro-1-methyl-1H-indazol-5-yl)-2-oxo-2,3-dihydro-1H-imidazol-1-yl)-2-(4-fluoro-3,5-dimethylphenyl)-2,4,5,7,8,9-hexahydro-4,8-epiminooxocino [5,4-c]pyrazole-10-carbonyl)-5-(4-oxaspiro[2.5]octan-7-yl)-1H-indol-1-yl)-2-methylcyclopropyl)-1,2,4-oxadiazol-5 (4H)-one]
721 | Cc1cc(-n2nc3c(c2-n2ccn(-c4ccc5nn(C(F)F)cc5c4F)c2=O)[C@@H]2CC[C@H](C3)N2C(=O)c2cc3cc([C@H]4CCOC(C)(C)C4)ccc3n2[C@@]2(c3noc(=O)[nH]3)C[C@@H]2C)cc(C)c1F [Compound 309, 3-((1S,2S)-1-(2-((4S,7R)-3-(3-(2-(difluoromethyl)-4-fluoro-2H-indazol-5-yl)-2-oxo-2,3-dihydro-1H-imidazol-1-yl)-2-(4-fluoro-3,5-dimethylphenyl)-2,4,5,6,7,8-hexahydro-4,7-epiminocyclohepta [c]pyrazole-9-carbonyl)-5-((S)-2,2-dimethyltetrahydro-2H-pyran-4-yl)-1H-indol-1-yl)-2-methylcyclopropyl)-1,2,4-oxadiazol-5 (4H)-one]
591 | Cc1cc(-n2nc3c(c2-c2nc(-c4ccc5c(cnn5C)c4F)cn2C)[C@H](C)N(C(=O)c2cc4cc([C@H]5CCOC(C)(C)C5)ccc4n2[C@@]2(c4noc(=O)[nH]4)C[C@@H]2C)CC3)cc(C)c1F [Compound 21, 3-((1S,2S)-1-(5-((S)-2,2-dimethyltetrahydro-2H-pyran-4-yl)-2-((S)-3-(4-(4-fluoro-1-methyl-1H-indazol-5-yl)-1-methyl-1H-imidazol-2-yl)-2-(4-fluoro-3,5-dimethylphenyl)-4-methyl-4,5,6,7-tetrahydro-2H-pyrazolo[4,3-c]pyridine-5-carbonyl)-1H-indol-1-yl)-2-methylcyclopropyl)-1,2,4-oxadiazol-5 (4H)-one]
≥ 10000 | Cc1cc(-n2nc3c(c2-n2ccn(-c4ccc5c(cnn5C)c4F)c2=O)[C@H]2CC[C@@H](C3)N2C(=O)c2cc3cc([C@H]4CCOC5(CC5)C4)ccc3n2[C@]2(c3noc(=O)[nH]3)C[C@@H]2C)cc(C)c1F [Compound 531, 3-[(1R,2S)-1-[2-[(1R,8S)-4-(4-fluoro-3,5-dimethyl-phenyl)-3-[3-(4-fluoro-1-methyl-indazol-5-yl)-2-oxo-imidazol-1-yl]-4,5,11-triazatricyclo[6.2.1.02,6]undeca-2,5-diene-11-carbonyl]-5-[(7S)-4-oxaspiro[2.5]octan-7-yl]indol-1-yl]-2-methyl-cyclopropyl]-4H-1,2,4-oxadiazol-5-one]
129 | Cc1cc(-n2nc3c(c2-n2ccn(-c4ccc5c(cnn5C)c4F)c2=O)[C@@H]2COC[C@H](C3)N2C(=O)c2cc3cc(C4CCOCC4)ccc3n2[C@@]2(c3noc(=O)[nH]3)C[C@@H]2C)cc(C)c1F [Compound 221, 3-((1S,2S)-1-(2-((4R,8S)-3-(3-(4-fluoro-1-methyl-1H-indazol-5-yl)-2-oxo-2,3-dihydro-1H-imidazol-1-yl)-2-(4-fluoro-3,5-dimethylphenyl)-2,4,5,7,8,9-hexahydro-4,8-epiminooxocino [5,4-c]pyrazole-10-carbonyl)-5-(tetrahydro-2H-pyran-4-yl)-1H-indol-1-yl)-2-methylcyclopropyl)-1,2,4-oxadiazol-5 (4H)-one]
